In brackets after ≈: the same amount, converted by molar mass. Like-named read-outs stand apart in the source and are kept apart here. Peptide text beside a SMILES is read from it.
What was measured:
[1] = system: Cryptococcus neoformans IFM 5844; assay: Minimal fungicidal concentration (MFC) determination, spotting on YPD; format: cell-based; settings: cultures from MIC assays diluted and spotted onto solid YPD, 30 °C, 48 h
Description: Minimal fungicidal concentration (MFC) determination. To assess fungicidal activity, both control and peptide-treated cultures from the MIC assays were diluted 10-fold and 100-fold in sterile distilled water. Five µL from each dilution was then spotted onto solid YPD medium (1 % pepton, 1 % dextrose, 0.5 % yeast extract, 2 % agar). The plates were incubated at 30 °C for 48 h and fungal growth was evaluated. MFC was defined as the lowest peptide concentration at which no visible fungal growth was detected, indicating complete fungicidal activity.

[2] = system: J774.2 mouse macrophage cells; assay: Cytotoxicity, MTT assay; format: cell-based; settings: 25 µM, 3 h, X-VIVO medium; for reduction in macrophage viability: relative to untreated control
Description: J774.2 cells were cultured as described previously and seeded into microtiter plates at a density of 5 × 10⁴ cells per well. The cells were incubated at 37 °C under 5 % CO₂ and 95 % relative humidity in X-VIVO™ medium until they adhered to the plate surface. Following attachment, cells were treated with peptides at their respective MIC concentrations in X-VIVO medium for 3 h under the same incubation conditions.
After peptide treatment, cells were washed with PBS (phosphate-buffered saline) and incubated in X-VIVO™ medium supplemented with 0.5 mg/mL MTT reagent (3-[4,5-dimethylthiazol-2-yl]−2,5-diphenyltetrazolium bromide, Merck KGaA, Darmstadt, Germany). The MTT assay was used to evaluate cell viability by staining live cells, leading to the formation of formazan crystals. These crystals were dissolved in dimethyl sulfoxide (DMSO), and absorbance was measured at 570 nm using a SPECTROstar Nano plate reader (BMG LabTech, Offenburg, Germany). The absorbance of untreated control cells was set as 100 % viability, and experimental results were expressed relative to this control. Each experiment was conducted in at least three independent biological replicates to ensure statistical reliability.

[3] = system: C. neoformans IFM 5844 cells; assay: Cell membrane permeability, calcein-AM assay by flow cytometry; format: cell-based, Cryptococcus neoformans; settings: half-MIC, 2 h, 30 °C, YNB
Description: The effect of the peptides on the cell membrane permeability of C. neoformans IFM 5844 cells was checked by flow cytometry with calcein-AM assay ([Olson, et al., 2001]). Calcein-acetoxymethyl ester (calcein-AM) is a membrane-permeable live-cell dye that, upon entering the cell, is cleaved by intracellular esterases, converting it into calcein, a membrane-impermeable fluorescent marker. The assay was carried out by suspending a total of 1 × 10^7 cells in 100 µl YNB medium containing 20 µg/mL indomethacin (Sigma-Aldrich, Saint Louis, MO, USA) and incubating them at 30 °C for 30 min to inhibit calcein transporters. Following this pre-treatment, membrane-permeable calcein-AM (Invitrogen, Waltham, MA, USA) was added to a final concentration of 5 µg/mL, and the samples were incubated at 30 °C for 3 h allowing the calcein-AM to enter the cells where esterases converted it to fluorescent calcein. After incubation, cells were washed twice with sterile distilled water and subsequently exposed to peptides at half-MIC concentrations in YNB medium for 2 h at 30 °C. Following peptide treatment, cells were washed twice with sterile distilled water, and fluorescence intensity was measured using a FlowSight® flow cytometer (Amnis-EMD Millipore) equipped with a 488-nm excitation laser. Intact cells stained with calcein-AM but not exposed to peptides served as controls. To ensure statistical reliability, four independent experiments were conducted, and fluorescence intensity was recorded from 10,000 cells per sample during each experiment.

[4] = system: Cryptococcus neoformans IFM 5844; assay: microbe, parasite or virus in culture; format: cell-based; settings: five-fold diluted YNB + 1 % dextrose, 5 × 10^4 cells/mL, 30 °C, 72 h, OD 620 nm, ≥ 90 % growth inhibition, tested 25 to 0.39 µM, three biological replicates; read-out: MIC
Description: (§1) The susceptibility of Cryptococcus neoformans IFM 5844 to 20 peptides (Supplementary Table 1) was tested in a widely used synthetic medium to cultivate yeasts (YNB) and in a serum-free medium what is able to support the proliferation of macrophage cells (X-VIVO).
YNB medium: five-fold diluted Difco Yeast Nitrogen Base w/o Amino Acids medium (Becton, Dickinson and Company, Sparks, MD, USA) supplemented with 1 % dextrose
(§2) The minimal inhibitory concentration (MIC) of each peptide was determined by using micro-dilution assay. The C. neoformans suspensions were adjusted to 5 × 10^4 cells/mL concentration in either YNB or X-VIVO medium. A 96-well microtiter plate was prepared by adding 95 µL suspension per well followed by 5 µL of serially two-fold diluted peptide solutions achieving a final volume of 100 µl. The concentration of the peptides ranged from 25 to 0.39 µM. For control samples, 5 µL pure medium was added to the yeast cell suspension instead of peptides. Plates were incubated at 37 °C for 48 h in X-VIVO medium and 30 °C for 72 h in YNB medium. After incubation, optical density was measured at 620 nm using a SPECTROstar Nano plate reader (BMG LabTech, Offenburg, Germany). […] The experiments were carried out in three independent biological replicates.

[5] = system: C. neoformans cells; assay: Effect of X1-NCR247C and calcofluor white on CFU; format: cell-based, Cryptococcus neoformans; settings: calcofluor white 2.5 µg/mL alone, 20 min
Description: To assess the effect of X1-NCR247C peptide and calcofluor white, C. neoformans cells were subjected to different treatments. […] For staining, cells were treated with calcofluor white at 2.5 µg/mL for the same duration. As a control, cells were incubated only with calcofluor white for 20 min.
For combined treatment, cells were first exposed to calcofluor white (2.5 µg/mL) for 5 min, followed by the addition of X1-NCR247C (0.39 µM), and the incubation continued for 15 additional minutes. Following treatment, cells were washed once with sterile distilled water to remove residual peptide and dye. Serial 10-, 100-, 1000-, and 10,000-fold dilutions were prepared, and 50 µL from each dilution was plated onto solid YPD medium in triplicate. After 48 h of incubation at 30 °C, colony-forming units were counted to determine cell viability under each condition.

[6] = system: Cryptococcus neoformans IFM 5844; format: cell-based; settings: half-diluted X-VIVO 15 medium, 37 °C, 48 h, OD 620 nm, ≥ 90 % growth inhibition, tested 25 to 0.39 µM, three biological replicates
Description: as §1
X-VIVO medium: half-diluted X-VIVO™ 15 cell culture medium (Lonza, Verviers, Belgium).
as §2

SMILES	fungistatic or fungicide mode of action [1]	reduction in macrophage viability [2] [%]	calcein leakage / membrane permeability disruption [3]	MIC [4] [µM]	also measured
CC[C@H](C)[C@H](NC(=O)[C@@H]1CCCN1C(=O)[C@@H](NC(=O)[C@H](CS)NC(=O)[C@H](Cc1ccc(O)cc1)NC(=O)[C@H](CO)NC(=O)[C@H](CCCCN)NC(=O)[C@H](CCCNC(=N)N)NC(=O)[C@H](CS)NC(=O)[C@H](CCCNC(=N)N)NC(=O)[C@@H](NC(=O)[C@H](CC(N)=O)NC(=O)[C@H](C)NC(=O)[C@H](CCCNC(=N)N)NC(=O)[C@H](CCCNC(=N)N)NC(=O)[C@H](CC(C)C)NC(=O)[C@@H](N)CCCCN)C(C)C)C(C)C)C(N)=O [NCR335C17–33] (H-KLRRANVRCRKSYCVPI-NH2; N-terminus assumed)	fungicidal effect	15	highest calcein leakage	–	–
CC[C@H](C)[C@H](NC(=O)[C@H](CS)NC(=O)CNC(=O)[C@H](CC(N)=O)NC(=O)[C@@H](N)CCCNC(=N)N)C(=O)N[C@H](C(=O)N[C@@H](CC(=O)O)C(=O)N1CCC[C@H]1C(=O)N[C@@H](CCCNC(=N)N)C(=O)N[C@@H](CS)C(=O)N1CCC[C@H]1C(=O)N[C@@H](Cc1ccc(O)cc1)C(=O)N[C@@H](CCC(N)=O)C(=O)N[C@@H](CCC(N)=O)C(=O)N[C@@H](CS)C(=O)N[C@@H](CCCNC(=N)N)C(=O)N[C@@H](CCCNC(=N)N)C(=O)N1CCC[C@H]1C(=O)N[C@@H](CC(C)C)C(=O)N[C@@H](Cc1ccc(O)cc1)C(=O)N[C@@H](CS)C(=O)N[C@@H](CCCNC(=N)N)C(=O)N[C@@H](CCCNC(=N)N)C(=O)N[C@@H](CCCNC(=N)N)C(N)=O)C(C)C [NCR247] (H-RNGCIVDPRCPYQQCRRPLYCRRR-NH2; N-terminus assumed)	fungicidal effect	25	–	–	–
CC[C@H](C)[C@H](NC(=O)[C@H](CCCCN)NC(=O)[C@H](CCCCN)NC(=O)[C@H](C)NC(=O)[C@H](CC(C)C)NC(=O)[C@H](C)NC(=O)[C@H](C)NC(=O)[C@H](CC(C)C)NC(=O)[C@H](C)NC(=O)[C@H](CCCCN)NC(=O)[C@H](CC(C)C)NC(=O)[C@H](CC(N)=O)NC(=O)[C@@H](NC(=O)[C@H](CCCCN)NC(=O)CNC(=O)[C@H](CC(C)C)NC(=O)[C@H](CC(C)C)NC(=O)[C@H](Cc1ccc(O)cc1)NC(=O)CNC(=O)[C@H](C)N)[C@@H](C)CC)C(=O)N[C@@H](CC(C)C)C(N)=O [TP10, reference compound]	–	–	–	12.5	macrophage viability compared to untreated control ([2]; p ≤ 0.01): significantly reduced macrophage viability
O=S(=O)(O)c1cc(Nc2nc(Nc3ccccc3)nc(N(CCO)CCO)n2)ccc1/C=C/c1ccc(Nc2nc(Nc3ccccc3)nc(N(CCO)CCO)n2)cc1S(=O)(=O)O [calcofluor white, reference compound]	–	–	–	–	effect on CFU counts [5]: did not reduce CFU counts
CC[C@H](C)[C@H](NC(=O)[C@H](CCCCN)NC(=O)[C@H](CCCCN)NC(=O)[C@H](C)NC(=O)[C@H](CC(C)C)NC(=O)[C@H](C)NC(=O)[C@H](C)NC(=O)[C@H](CC(C)C)NC(=O)[C@H](C)NC(=O)[C@H](CCCCN)NC(=O)[C@H](CCCNC(=N)N)NC(=O)[C@H](CCCNC(=N)N)NC(=O)[C@H](CCCNC(=N)N)NC(=O)[C@H](CS)NC(=O)[C@H](Cc1ccc(O)cc1)NC(=O)[C@H](CC(C)C)NC(=O)[C@@H]1CCCN1C(=O)[C@H](CCCNC(=N)N)NC(=O)[C@H](CCCNC(=N)N)NC(=O)[C@H](CS)NC(=O)[C@H](CCC(N)=O)NC(=O)[C@@H](N)CCC(N)=O)C(=O)N[C@@H](CC(C)C)C(N)=O [NCR247C-X2] (H-QQCRRPLYCRRRKALAALAKKIL-NH2; N-terminus assumed)	fungicidal effect	–	highest calcein leakage	0.78	MIC [6]: 1.56 µM (≈ 4.3 µg/mL); proportion of calcein-stained cells ([3]; stained untreated control 75 %, four independent experiments): 8%

Reference: article PMC12164026, “Plant-derived nodule-specific cysteine-rich peptides as potent antifungal agents against Cryptococcus neoformans: mechanisms of action, chimeric peptide enhancement, and immunomodulatory effects” (Current Research in Microbial Sciences, 2025)
